From patent US11753386B2, “Processes for preparing a MDM2 inhibitor” (Amgen, Inc., priority 2018, dated 2023) come the findings set out here.

Type in all cases: physicochemical
The nature of series [1]: Solubility in acetonitrile/water (9/1 volume ratio). The following applies: organic solvent or mixture, 10° C.
A short description of series [2]: Equilibrium solubility measurements for DHO in various solvents. The note with it: thermodynamic from solid, 20° C. The method, then: Equilibrium solubility measurements were gathered for DHO in various solvents. It was observed that all values obtained were above 20 mg/mL at 20° C. (including heptane) except for water (<0.1 mg/mL), which was thus selected as an anti-solvent. […] Using this protocol, crystalline DHO was isolated in 88% yield from DLAC in a >98 LC area % (Scheme 9).

Series [3] can be described thus: Supernatant concentration at end of crystallization. The following applies: 20° C. How it is done:
Cooling to 20° C. in 2 hours prompts another 60% of the material to crystallize. Four volumes of heptane are subsequently added to lower the supernatant concentration to approximately 5 mg/mL in preparation for batch filtration.
A curve showing solubility values at different time points in the crystallization process is represented in FIG. 16. […] One volume of water is subsequently added to lower the supernatant concentration to approximately 5 mg/mL in preparation for a rapid batch filtration. Three water washings (3×10 volumes) were conducted to minimize the presence of residual acetic acid in the isolated material.

Series [4] is described as follows: Particle size distribution pre and post dry-milling.
Setting [5] is: milled (Pallman Universal Mill).

For the compound `C=CC[C@@]1(C)C[C@H](c2cccc(Cl)c2)[C@@H](c2ccc(Cl)cc2)N([C@H](CS(=O)(=O)C(C)C)C(C)C)C1=O` [SUL, (3S,5R,6S)-3-allyl-5-(3-chlorophenyl)-6-(4-chlorophenyl)-1-((S)-1-(isopropylsulfonyl)-3-methylbutan-2-yl)-3-methylpiperidin-2-one], the solubility (commonly the concentration that dissolves in the medium under given conditions) in series [1] was 25 mg/mL.

As to `C=CC[C@@](C)(C[C@H](c1cccc(Cl)c1)[C@@H](O)c1ccc(Cl)cc1)C1=N[C@@H](C(C)C)CO1` [DHO, (1R,2R,4S)-2-(3-chlorophenyl)-1-(4-chlorophenyl)-4-((S)-4-isopropyl-4,5-dihydrooxazol-2-yl)-4-methylhept-6-en-1-ol], the thermodynamic solubility (commonly the concentration in solution at equilibrium with solid) is more than 20 mg/mL in series [2] (organic solvent or mixture, various solvents (including heptane) except water) and less than 0.1 mg/mL in series [2] (water).

Regarding `CC(C)[C@@H](CS(=O)(=O)C(C)C)N1C(=O)[C@@](C)(CC(=O)O)CC(c2cccc(Cl)c2)C1c1ccc(Cl)cc1` (stereo partly drawn) [Compound 232-DAB], the Supernatant concentration entry in series [3] (isopropyl acetate (4 volumes) / heptane (4 volumes)) is reported as “approximately 5 mg/mL”.

Regarding `CC(C)[C@@H](CS(=O)(=O)C(C)C)N1C(=O)[C@@](C)(CC(=O)O)C[C@H](c2cccc(Cl)c2)[C@H]1c1ccc(Cl)cc1` [Compound A, 2-((3R,5R,6S)-5-(3-chlorophenyl)-6-(4-chlorophenyl)-1-((S)-1-(isopropylsulfonyl)-3-methylbutan-2-yl)-3-methyl-2-oxopiperidin-3-yl)acetic acid], the Supernatant concentration entry in series [3] (acetic acid (6.6 volumes) / water (4.4 + 1 volumes)) is “approximately 5 mg/mL”. In addition, in series [4] (setting [5]), the d10 is 3.2 μm, the d50 came to 19.1 μm and the d90 was 43.7 μm. In series [4] (unmilled), this compound gave a d10 of 14.6 μm, a d50 of 42.5 μm and a d90 of 102 μm.

In the case of `CC(C)[C@@H](CS(=O)(=O)C(C)C)N1C(=O)[C@@](C)(CC=O)C[C@H](c2cccc(Cl)c2)C1c1ccc(Cl)cc1` (stereo partly drawn) [ALD], in series [1], the solubility came out at 21 mg/mL.
